How the values were obtained:
DLD1-TxR = test: SRB cell growth inhibition assay; assay type: cell-based, human; details: for selectivity ratio colorectal cancer: GI50 sensitive DLD1 / GI50 MDR DLD1-TxR; for GI50: Homo sapiens, SRB assay, 48 h, colorectal cancer MDR, mean ± SEM
Protocol: (§1) Two distinct pairs of counterpart drug-sensitive and MDR human tumor cell lines were used, namely the non-small lung cancer (NSCLC) NCI-H460 (same cell line as in the NCI screen) and its MDR counterpart cell line NCI-H460/R and the colorectal cancer DLD1 and its MDR counterpart cell line DLD1-TxR (Table 3). The screening was performed using the SRB assay, and the GI50 for each compound was determined by interpolation on the attained concentration−response curves and compared with NCI60 screening data (SI, Figures S62−S63; Table S21).
(§2) Two pairs of drug-sensitive and multidrug-resistant (MDR) cell lines from human nonsmall cell lung cancer (NSCLC), NCI-H460 and NCI-H460/R, and colorectal cancer, DLD1 and DLD1-TxR, kindly provided by Dr M. Pešić (Belgrade, Serbia), were used to evaluate the growth inhibition potential of the compounds 1, 2, 3, 4, 5, 20, 23, 24, an 25.[76],[77] Additionally, growth inhibition assays were performed with compound 25 on two other NSCLC cell lines, A549 and NCI-H322, obtained from the American Type Culture Collection (ATCC) and the European Collection of Authenticated Cell Cultures, respectively. The A549 cell line was maintained in Dulbecco’s Modified Eagle Medium (DMEM) supplemented with 4.5 g/L Glucose with UltraGlutamine with sodium pyruvate (Lonza, Basel Stücki, Switzerland), enriched with 10% fetal bovine serum (FBS; Biowest, Nuaillé, France). The lung fibroblast MRC-5 cell line and the remaining NSCLC and colorectal cancer cell lines were cultured in Roswell Park Memorial Institute (RPMI) 1640 (with stable glutamine and 25 mM HEPES) medium (Biowest), supplemented with 10% fetal bovine serum. […] For the sulforhodamine B (SRB) and 3D cell culture assays, the media were supplemented with 5% FBS. The remaining experiments were performed with medium supplemented with 10% FBS.
(§3) Cells were seeded at a previously determined optimal cell concentration (5.0 × 10^4 cells/mL for NSCLC cells and the nontumorigenic MRC-5 cell line and 1.0 × 10^5 cells/mL for colorectal cancer cells) and incubated at 37 °C for 24 h. […] The SRB assay was performed as previously described.[78],[79] Briefly, after fixing cells with 10% (w/v) ice-cold trichloroacetic acid (Merck Life Science), the proteins were stained with 0.4% of SRB (Merck Life Science) in acetic acid (Merck Life Science). Following washing steps in acetic acid, the bound dye was solubilized with 10 mM Tris base solution (Merck Life Science). Absorbance was measured at 510 nm in a multiplate reader (Synergy Mx, Biotek Instruments Inc., Winooski, Vermont, USA) using the Gen5 software (Biotek Instruments Inc.).

NCI-ADR/RES = test system: NCI-ADR/RES; design: method as in PMID 31894828; details: MDR cell line, high P-gp; read-out: growth inhibition (GI50) NCI/ADR-RES; cited from earlier work
NCI-H460/R = test: SRB cell growth inhibition assay; assay type: cell-based, human; details: for selectivity ratio NSCLC: GI50 sensitive NCI-H460 / GI50 MDR NCI-H460/R; for GI50: Homo sapiens, NCI-H460, SRB assay, 48 h, NSCLC MDR, mean ± SEM
Protocol: Two distinct pairs of counterpart drug-sensitive and MDR human tumor cell lines were used, namely the non-small lung cancer (NSCLC) NCI-H460 (same cell line as in the NCI screen) and its MDR counterpart cell line NCI-[…] and the colorectal cancer DLD1 and its MDR counterpart cell line DLD1-TxR (Table 3). The screening was performed using the SRB assay, and the GI50 for each compound was determined by interpolation on the attained concentration-response curves and compared with NCI60 screening data (SI, Figures S62-S63; Table S21). Two pairs of drug-sensitive and multidrug-resistant (MDR) cell lines from human nonsmall cell lung cancer (NSCLC), NCI-H460 and NCI-[…], and colorectal cancer, DLD1 and DLD1-TxR, kindly provided by Dr M. […] The A549 cell line was maintained in Dulbecco's Modified Eagle Medium (DMEM) supplemented with 4.5 g/L Glucose with UltraGlutamine with sodium pyruvate (Lonza, Basel Stücki, Switzerland), enriched with 10% fetal bovine serum (FBS; Biowest, Nuaillé, France). […] For the sulforhodamine B (SRB) and 3D cell culture assays, the media were supplemented with 5% FBS. The remaining experiments were performed with medium supplemented with 10% FBS. […] The SRB assay was performed as previously described.[78],[79] Briefly, after fixing cells with 10% (w/v) ice-cold trichloroacetic acid (Merck Life Science), the proteins were stained with 0.4% of SRB (Merck Life Science) in acetic acid (Merck Life Science). Following washing steps in acetic acid, the bound dye was solubilized with 10 mM Tris base solution (Merck Life Science). Absorbance was measured at 510 nm in a multiplate reader (Synergy Mx, Biotek Instruments Inc., Winooski, Vermont, USA) using the Gen5 software (Biotek Instruments Inc.).

DLD1 = test: SRB cell growth inhibition assay; assay type: cell-based; details: Homo sapiens, DLD-1, 48 h, colorectal cancer sensitive, mean ± SEM
From the text: as §1, with “Taking into consideration the promising results of preliminary NCI screening, nine compounds (1, 2, 3, 4, 5, 20, 23, 24, 25) were selected for further screening in two counterpart pairs of sensitive and MDR cell lines. […] Two” for “Two”
as §2, §3

NCI-H460 [1] = test: SRB cell growth inhibition assay; assay type: cell-based; details: Homo sapiens, 48 h, NSCLC sensitive, mean ± SEM
From the text: as §1, with “Taking into consideration the promising results of preliminary NCI screening, nine compounds (1, 2, 3, 4, 5, 20, 23, 24, 25) were selected for further screening in two counterpart pairs of sensitive and MDR cell lines. […] Two” for “Two”
as §2, §3

[2] = test system: NCI60 tumor cell line panel; design: method as in PMID 31894828; details: against 53 human tumor cell lines; cited from earlier work
NCI-H460 [3] = test: NCI60 five-dose GI50 (NCI data); assay type: cell-based; details: Homo sapiens, NCI data provided for comparison, read-out: NSCLC NCI-H460 GI50 (NCI)
From the text: The concentration−response curve generated enables the determination of three criteria, GI50 (drug concentration at which 50% of cell growth is inhibited), total growth inhibition (TGI) and LC50 (drug concentration at which 50% of tumor cells are killed) which can be used to compare effectiveness against any compound tested in the screen since its inception.
S2.1 NCI Screening Assay Experimental details
NCI Screening Assay Experimental: Cancer cell growth assays (NCI60 screening) 5,6 One-dose study: Tested compounds were initially solubilised in DMSO, diluted into RPMI 1640 and 5% fetal bovine serum/L-glutamine, and added to 96-well plates containing cell lines previously cultured for 24 h. After 48 h incubation, the media were removed, and the cells were fixed and stained with sulforhodamine B to determine overall percent growth/ total protein content. Unbound dye was removed with five washes of 1% acetic acid, and the plates were allowed to air dry. The dye was then resolubilised in Tris buffer, and the colorimetric absorbance was measured (515 nm). Growth inhibition was measured relative to the response generated from proliferating cells cultured under identical conditions for 48 h. Data from one-dose experiments pertains to the percentage growth at […]
Five-dose study: Serial 5 × 10-fold dilution from an initial DMSO stock solution was performed, prior to incubation at each individual concentration (10 nM, 100 nM, 1 μM, 10 μM and 100 μM). Using seven absorbance measurements (time zero (Tz), control growth (C), and test growth in the presence of drug at the five concentration levels (Ti)), the percentage growth was calculated at each of the drug concentrations levels. Percentage growth inhibition was calculated as: [(Ti − Tz)/(C − Tz)] × 100 for concentrations for which Ti ≥ Tz, [(Ti − Tz)/Tz] × 100 for concentrations for which Ti < Tz. Three dose response parameters were calculated for each experimental agent. […]
was calculated from [(Ti − Tz)/(C − Tz)] × 100 = 50, which is the drug concentration resulting in a 50% reduction in the net protein increase (as measured by sulforhodamine B staining) in control cells during the drug incubation. The drug concentration resulting in total growth inhibition (TGI) was calculated from Ti = Tz. The LC50 (concentration of drug resulting in a 50% reduction in the measured protein at the end of the drug treatment as compared to that at the beginning) indicating a net loss of cells following treatment was calculated from [(Ti − Tz)/Tz] × 100 = −50. Values were calculated for each of these three parameters if the level of activity was reached; however, if the effect was not reached or was exceeded, the value for that parameter was expressed as greater or less than the maximum or minimum concentration tested.

NCI-H460/R spheroids = test: Cell Titer-Glo 3D spheroid viability assay; assay type: cell-based, human; details: 48 h; 25 at 0.35 and 0.7 μM; etoposide 2 μM
Protocol: Results are presented as the % of luciferase luminescence relative to the “blank” cells (medium).
Spheroid formation was conducted in 12-series agarose 3D Petri Dish micromolds (MicroTissues Technology, MicroTissues Inc., Sigma-Aldrich). The agarose micromolds were prepared using 1% agarose in a 0.9% NaCl solution and then placed in 12-well plates and equilibrated with RPMI supplemented with 10% FBS for at least 2 h before cell seeding. Cell suspensions corresponding to 500 cells per spheroid of the NSCLC cell lines (NCI-H460 and NCI-H460/R), and 1000 cells per spheroid of the colorectal cancer cell lines (DLD1 and DLD1-TxR) were seeded in the corresponding micromolds. […] Spheroid formation was monitored with the Leica DMi1 microscope. […] At the end of the treatment, images from at least 8 different spheroids per condition were captured on the Leica Dmi1 microscope, and posteriorly analyzed with the automated open-source software AnaSP.[82] Spheroid parameters, such as equivalent diameter, circularity, and compactness, were calculated.
Spheroid viability was determined through the luminescence-based Cell Titer-Glo 3D cell viability assay (Promega). […] The plate was then incubated in the dark for 5 min with agitation and allowed to rest for 25 min before luminescence measurement. Luminescence was quantified using the microplate reader Synergy MX coupled with the GEN5 software. […]

| GI50 (DLD1-TxR) | GI50 (NCI-H460/R) | GI50 (DLD1) | GI50 (NCI-H460 [1]) | Structure (SMILES) | selectivity ratio colorectal cancer (DLD1-TxR) | GI50 (NCI-ADR/RES) | selectivity ratio NSCLC (NCI-H460/R) | GI50 [2] | GI50 (NCI-H460 [3]) | viability of NCI-H460/R spheroids (NCI-H460/R spheroids) |
| --- | --- | --- | --- | --- | --- | --- | --- | --- | --- | --- |
| 2970 ± 130 nM | 2290 ± 280 nM | 4890 ± 510 nM | 3060 ± 150 nM | COC(=O)c1c2c(c(C)[n+]([O-])c1C)C(=O)C(NCc1ccccc1)=CC2=O [Compound 1] | 1.7 | 2670 nM | 1.3 | 2520 nM | 2720 nM |  |
| 4800 ± 70 nM | 4280 ± 1080 nM | 6620 ± 350 nM | 8430 ± 1410 nM | COC(=O)c1c2c(c(C)[n+]([O-])c1C)C(=O)C=CC2=O [Compound 3] | 1.4 |  | 2 | 1750 nM | 731 nM |  |
|  |  |  |  | COc1cc([C@@H]2c3cc4c(cc3[C@@H](O[C@@H]3O[C@@H]5CO[C@@H](C)O[C@H]5[C@H](O)[C@H]3O)[C@H]3COC(=O)[C@H]23)OCO4)cc(OC)c1O [etoposide, reference compound] |  |  |  |  |  | did not significantly affect the viability of the spheroids |
| 970 ± 210 nM |  | 20 ± 3 nM |  | CC(=O)O[C@H]1C(=O)[C@@]2(C)[C@H]([C@H](OC(=O)c3ccccc3)[C@]3(O)C[C@H](OC(=O)[C@H](O)[C@@H](NC(=O)c4ccccc4)c4ccccc4)C(C)=C1C3(C)C)[C@]1(OC(C)=O)CO[C@@H]1C[C@@H]2O [paclitaxel, reference compound] |  |  |  |  |  |  |

— publication PMC11345829, “Discovery of Potent Isoquinolinequinone N-Oxides to Overcome Cancer Multidrug Resistance” (Journal of Medicinal Chemistry, 2024)
